Experimental data: publication PMC9020739, “Identification of a two-component regulatory system involved in antimicrobial peptide resistance in Streptococcus pneumoniae” (PLoS Pathogens, 2022)
Where a SMILES comes first, the peptide text is derived from it. Bridges are numbered along the chain shown (N, C = ends). [ ]: non-standard residue; d: D form. The star is where a group is joined. Ileψ(thiazoline)Cys = CC[C@H](C)[C@H](N)C1=N[C@H](C(=O)*)CS1; dOrn = NCCC[C@@H](N)C(=O)O

Legend:
Format in all cases: cell-based, Streptococcus pneumoniae
[1] = test system: S. pneumoniae R6 mutant strains (ΔbceAB, Δtcs01, ΔbceAB/tcs01); experiment: Growth of wild-type and mutant strains in microplates with bacitracin; details: Todd-Hewitt broth, various bacitracin concentrations, 4 biological replicates (Fig 1)
Experimental: The MIC of various antimicrobial peptides for R6, R800 and D39 strains was determined by classical 2-fold broth dilution method. Cells were first grown in Todd-Hewitt medium at 37°C without agitation and in anaerobic conditions until the absorbance reaches approximatively 0.3. Complementation strains were grown with 0.5 μM ComS inducer until the appropriate OD. Cells were then diluted at final OD600nm = 0.002 in 96-well plates containing 300 μL of Todd-Hewitt medium (and 2 μM ComS inducer for the complementation strains) with serial dilutions of antimicrobial peptides. Pneumococcal growth was monitored by a microplate reader (TECAN) at 37°C without agitation. The absorbance was followed at 600 nm every 15 min for 15 h.

[2] = test system: protein levels in R6 Δtcs01 strain; experiment: Quantitative proteomics (TMT labeling, LC-MS/MS)
Experimental: (§1) In experiments 1 and 2, we analyzed the R6 WT and R6 Δtcs01 strains treated or not with 1 μg/mL of bacitracin. In experiment 3, we analyzed the R800-Δhk01-PcomX-rr01-hk01 strain treated with either 1 μg/mL or 32 μg/mL of bacitracin.
(§2) Strains were grown in 50 mL of THY medium at 37°C without agitation and in anaerobic conditions until the absorbance reaches approximatively 0.3. After the addition of bacitracin (final concentrations of 1 or 32 μg/mL), the bacterial cultures were incubated for 45 min at 37°C with a slight mechanical agitation (60 rpm). Then, the cell density was adjusted to an OD600nm = 0.8 in 10 mL. After centrifugation at 4,000 x g for 10 min at 4°C, the pellets were resuspended with 1 mL of cold Tris-HCl 50 mM pH 7.5 and centrifuged at 10,000 x g, for 5 min at 4°C. The pellets were harvested and treated in the same conditions than previously. The contents were transferred into Eppendorf low-binding tubes. After a last centrifugation at 10,000 x g for 5 min at 4°C, the bacterial pellets were stored at -80°C. […] The proteins were quantified by using BCA assay kit (Thermo Scientific) before sending the samples to mass spectrometry analysis.
(§3) To compare the proteins abundance between the different conditions/samples, we used a multiplexed quantitation method after labeling by isobaric Tandem Mass Tags (TMT). […]
(§4) We simultaneously compared 6 TMT samples within the same experiment. In the experiment 1 we analyzed one sixplex containing R6 WT, R6 WT+ Bacitracin 1, R6 WT+ Bacitracin 2, R6 ΔTCS, R6 ΔTCS+ Bacitracin 1, R6 ΔTCS+ Bacitracin 2 labeled with reporter ions 126, 127, 128, 129, 130 and 131, respectively; and experiment 2 is a second sixplex containing R6 WT1, R6 WT2, R6 WT+ Bacitracin, R6 ΔTCS1, R6 ΔTCS2, R6 ΔTCS+ Bacitracin labeled with reporter ions 126, 127, 128, 129, 130 and 131, respectively. The calculated ratios shown in Figs 5 and S5 are: experiment 1: R6 WT+ Bacitracin (1/2)/R6WT and R6 WT+ Bacitracin (1/2)/ R6 ΔTCS+ Bacitracin (1/2); experiment 2: R6 WT+ Bacitracin /R6WT (1/2) and R6 WT+ Bacitracin/ R6 ΔTCS+ Bacitracin. […]

[3] = test system: BceAB protein levels in R6 WT strain; experiment: Quantitative proteomics (TMT labeling, LC-MS/MS); details: R6 wild-type, bacitracin 1 μg/ml for 45 min versus untreated
Experimental: as §1, §2, §3, §4

## CC[C@H](C)[C@H](N)C1=N[C@H](C(=O)N[C@@H](CC(C)C)C(=O)N[C@H](CCC(=O)O)C(=O)N[C@H](C(=O)N[C@H]2CCCCNC(=O)[C@H](CC(N)=O)NC(=O)[C@@H](CC(=O)O)NC(=O)[C@H](Cc3cnc[nH]3)NC(=O)[C@@H](Cc3ccccc3)NC(=O)[C@H]([C@@H](C)CC)NC(=O)[C@@H](CCCN)NC2=O)[C@@H](C)CC)CS1 [bacitracin] ({Ileψ(thiazoline)Cys}-L[dE]IK[dOrn]I[dF]H[dD]N; lactam 4-C (inferred); N-terminus assumed)
[1]
  Growth of the mutant strains: severely impaired
[2]; R6 Δtcs01, bacitracin 1 μg/ml for 45 min versus untreated, average
  BceAB protein levels upon treatment: 0.99 ± 0.09 fold
[2]; R6 Δtcs01 treated with bacitracin, TMT proteomics
  Abundance of LiaS upon treatment: increased by two-fold
[3]
  Accumulation of BceAB upon treatment: 7 ± 3 fold
